Experimental data: patent publication US10633407B2, “14-membered ketolides and methods of their preparation and use” (President and Fellows of Harvard College, priority 2014, dated 2020)
In brackets after ≈: the same amount, converted by molar mass. Where two headings read alike, the source gives them in different places.

What was measured:
Experiment in all cases: CLSI broth dilution MIC determination
Format in all cases: cell-based
E. coli ATCC 25922 = tested on: E. coli ATCC 25922
Summary of the method: (§1)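 CLSI broth-dilution MIC. Controls: azithromycin, solithromycin (many cases). Macrolide-resistance genotypes constitutive or inducible.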

E. coli CTX-M-14 = tested on: E. coli CTX-M-14
Summary of the method: as §1

E. coli NDM-1 = tested on: E. coli NDM-1
Summary of the method: as §1

E. coli TEM-1 = tested on: E. coli TEM-1
Summary of the method: as §1

H. influenzae ATCC49247 = tested on: H. influenzae ATCC49247
Summary of the method: as §1

K. pneumoniae TEM-10 = tested on: K. pneumoniae TEM-10
S. aureus ATCC 29213 = tested on: S. aureus ATCC 29213
Summary of the method: as §1

S. aureus MRSA: USA100 = tested on: S. aureus MRSA: USA100
Summary of the method: as §1

S. aureus MRSA: USA300 = tested on: S. aureus MRSA: USA300
Summary of the method: as §1

S. aureus USA600, GISA = tested on: S. aureus USA600, GISA
Summary of the method: as §1

S. aureus erm A genotype = tested on: S. aureus erm A genotype
Summary of the method: as §1

S. pneumoniae ATCC 49619 = tested on: S. pneumoniae ATCC 49619
Summary of the method: as §1

[1] = tested on: S. pneumoniae erm B + mef A genotype
Summary of the method: as §1

[2] = tested on: S. pneumoniae erm B + tet(M,O) genotype; conditions: Streptococcus pneumoniae
Summary of the method: as §1

[3] = tested on: S. pneumoniae mef A genotype (first strain so labelled)
Summary of the method: as §1

[4] = tested on: S. pneumoniae mef A genotype (second strain so labelled)
Summary of the method: as §1

S. pyogenes ATCC 19615 = tested on: S. pyogenes ATCC 19615
[5] = tested on: S. pyogenes Macrolide-resistant
E. faecalis ATCC 29212 = tested on: E. faecalis ATCC 29212
[6] = tested on: E. faecalis Vancomycin-resistant
A. baumannii ATCC 19606 = tested on: A. baumannii ATCC 19606
[7] = tested on: A. baumannii imipenem-resistant
[8] = tested on: A. baumannii chromosomal class C
A. baumannii IMP-4 = tested on: A. baumannii IMP-4
K. pneumoniae ATCC 10031 = tested on: K. pneumoniae ATCC 10031
K. pneumoniae KPC-2 = tested on: K. pneumoniae KPC-2
K. pneumoniae SHV-12 = tested on: K. pneumoniae SHV-12
P. aeruginosa ATCC 27853 = tested on: P. aeruginosa ATCC 27853
[9] = tested on: P. aeruginosa HPA101-1477
[10] = tested on: E. coli MP-532 clinical-cErmB; conditions: Escherichia coli
Summary of the method: as §1

E. coli MP-541 clinical = conditions: Escherichia coli, MP541CLINICAL, read-out: MIC
Summary of the method: as §1

[11] = tested on: E. coli MP-9 ATCC25922:tolC; conditions: Escherichia coli, ATCC25922
Summary of the method: as §1

[12] = tested on: S. aureus (MRSA) MP-513 ST-228 cErm (Clinical-cErm); conditions: Staphylococcus aureus, read-out: MIC
Summary of the method: as §1

[13] = tested on: S. aureus MP-17 ATCCBAA-977 (BAA 977 iErm); conditions: Staphylococcus aureus; S. aureus MP-17, ATCCBAA-977, iErm; read-out: MIC
Summary of the method: as §1

P. aeruginosa MP-7 PAO1 = conditions: Pseudomonas aeruginosa, read-out: MIC
[14] = tested on: P. aeruginosa MP-8 PAO1:mex (mex-oprM-deletion); conditions: Pseudomonas aeruginosa, PAO1
[15] = tested on: K. pneumoniae MP-548 clinical; conditions: Klebsiella pneumoniae, MP548CLINICAL, read-out: MIC
[16] = tested on: K. pneumoniae MP-546 Clinical-MDR; conditions: Klebsiella pneumoniae, read-out: MIC
[17] = tested on: A. baumannii MP-577 Clinical-AZT low; conditions: Acinetobacter baumannii, read-out: MIC
[18] = tested on: A. baumannii MP-576 Clinical-MDR; conditions: Acinetobacter baumannii, read-out: MIC
[19] = Escherichia coli, ATCC25922, E. coli ATCC 25922 (MP-4), read-out: MIC
[20] = Staphylococcus aureus, ATCC29213, S. aureus ATCC 29213 (MP-12), read-out: MIC
[21] = Staphylococcus aureus, S. aureus MRSA: USA100 (MP-618 UNT-096), read-out: MIC
[22] = Staphylococcus aureus, S. aureus MRSA: USA300 (MP-549, msr(a)), read-out: MIC
[23] = Staphylococcus aureus, S. aureus USA600, GISA (MP-619 UNT-120), read-out: MIC
[24] = Staphylococcus aureus, S. aureus erm A genotype (MP-620 UNT-146), read-out: MIC
[25] = Streptococcus pneumoniae, ATCC49619, S. pneumoniae ATCC 49619 (MP-21), read-out: MIC
[26] = Streptococcus pneumoniae, first strain (MP-626 UNT-038)
[27] = Streptococcus pneumoniae, second strain (MP-627 UNT-039), read-out: MIC
[28] = Streptococcus pyogenes, ATCC19615, S. pyogenes ATCC 19615 (MP-19), read-out: MIC
[29] = Streptococcus pyogenes, S. pyogenes Macrolide-resistant (MP-625 UNT-014), read-out: MIC
[30] = Enterococcus faecalis, ATCC29212, E. faecalis ATCC 29212 (MP-24), read-out: MIC
[31] = Enterococcus faecalis, E. faecalis Vancomycin-resistant (UNT-039), read-out: MIC
[32] = Acinetobacter baumannii, ATCC19606, A. baumannii ATCC 19606 (MP-15), read-out: MIC
[33] = Acinetobacter baumannii, read-out: MIC
[34] = Klebsiella pneumoniae, ATCC10031, K. pneumoniae ATCC 10031 (MP-14), read-out: MIC
[35] = Pseudomonas aeruginosa, ATCC27853, P. aeruginosa ATCC 27853 (MP-3), read-out: MIC

Structure (SMILES): CC[C@H]1OC(=O)[C@H](C)[C@@H](O[C@H]2C[C@@](C)(OC)[C@@H](O)[C@H](C)O2)[C@H](C)[C@@H](O[C@@H]2O[C@H](C)C[C@H](N(C)C)[C@H]2O)[C@](C)(O)C[C@@H](C)CN(C)[C@H](C)[C@@H](O)[C@]1(C)O [Azithro, azithromycin, reference compound]
- MIC (E. coli ATCC 25922; E. coli ATCC 25922, Gram-negative): 4 µg/mL (≈ 5.34 µM)
- MIC (E. coli ATCC 25922; [19]): 4 µg/mL (≈ 5.34 µM)
- MIC (E. coli CTX-M-14; Escherichia coli, CTXM14, read-out: MIC): > 32 µg/mL
- MIC (E. coli CTX-M-14; Gram-negative): > 32 µg/mL
- MIC (E. coli NDM-1; Escherichia coli, NDM1, read-out: MIC): > 32 µg/mL
- MIC (E. coli NDM-1; Gram-negative): > 32 µg/mL
- MIC (E. coli TEM-1; E. coli TEM-1, Gram-negative): 1 µg/mL (≈ 1.34 µM)
- MIC (E. coli TEM-1; Escherichia coli, TEM1): 1 µg/mL (≈ 1.34 µM)
- MIC (H. influenzae ATCC49247; Gram-negative): 0.5 µg/mL (≈ 0.668 µM)
- MIC (H. influenzae ATCC49247; Haemophilus influenzae, read-out: MIC): 0.5 µg/mL (≈ 0.668 µM)
- MIC (K. pneumoniae TEM-10; Gram-negative): 8 µg/mL (≈ 10.7 µM)
- MIC (K. pneumoniae TEM-10; Klebsiella pneumoniae, TEM10, read-out: MIC): 8 µg/mL (≈ 10.7 µM)
- MIC (S. aureus ATCC 29213; S. aureus ATCC 29213, Gram-positive): 1 µg/mL (≈ 1.34 µM)
- MIC (S. aureus ATCC 29213; [20]): 1 µg/mL (≈ 1.34 µM)
- MIC (S. aureus MRSA: USA100; S. aureus MRSA: USA100, Gram-positive): > 32 µg/mL
- MIC (S. aureus MRSA: USA100; [21]): > 32 µg/mL
- MIC (S. aureus MRSA: USA300; S. aureus MRSA: USA300, Gram-positive): 32 µg/mL (≈ 42.7 µM)
- MIC (S. aureus MRSA: USA300; [22]): 32 µg/mL (≈ 42.7 µM)
- MIC (S. aureus USA600, GISA; S. aureus USA600, GISA, Gram-positive): > 32 µg/mL
- MIC (S. aureus USA600, GISA; [23]): > 32 µg/mL
- MIC (S. aureus erm A genotype; S. aureus erm A genotype, Gram-positive): > 32 µg/mL
- MIC (S. aureus erm A genotype; [24]): > 32 µg/mL
- MIC (S. pneumoniae ATCC 49619; S. pneumoniae ATCC 49619, Gram-positive): < 0.0312 µg/mL
- MIC (S. pneumoniae ATCC 49619; [25]): < 0.0312 µg/mL
- MIC ([1]; S. pneumoniae erm B + mef A genotype, Gram-positive): > 32 µg/mL
- MIC ([1]; Streptococcus pneumoniae): > 32 µg/mL
- MIC [2]: < 0.0312 µg/mL
- MIC [3, 26]: 0.25 µg/mL (≈ 0.334 µM)
- MIC ([3]; first of two rows so labelled, Gram-positive): 0.25 µg/mL (≈ 0.334 µM)
- MIC ([4]; Gram-positive): 4 µg/mL (≈ 5.34 µM)
- MIC [4, 27]: 4 µg/mL (≈ 5.34 µM)
- MIC (S. pyogenes ATCC 19615; S. pyogenes ATCC 19615, Gram-positive): < 0.0312 µg/mL
- MIC (S. pyogenes ATCC 19615; [28]): < 0.0312 µg/mL
- MIC ([5]; S. pyogenes Macrolide-resistant, Gram-positive): 2 µg/mL (≈ 2.67 µM)
- MIC [5, 29]: 2 µg/mL (≈ 2.67 µM)
- MIC (E. faecalis ATCC 29212; E. faecalis ATCC 29212, Gram-positive): 4 µg/mL (≈ 5.34 µM)
- MIC (E. faecalis ATCC 29212; [30]): 4 µg/mL (≈ 5.34 µM)
- MIC ([6]; E. faecalis Vancomycin-resistant, Gram-positive): > 32 µg/mL
- MIC [6, 31]: > 32 µg/mL
- MIC (A. baumannii ATCC 19606; A. baumannii ATCC 19606, Gram-negative): 16 µg/mL (≈ 21.4 µM)
- MIC (A. baumannii ATCC 19606; [32]): 16 µg/mL (≈ 21.4 µM)
- MIC [7, 33]: 8 µg/mL (≈ 10.7 µM)
- MIC ([7]; Gram-negative): 8 µg/mL (≈ 10.7 µM)
- MIC [8, 33]: 32 µg/mL (≈ 42.7 µM)
- MIC ([8]; Gram-negative): 32 µg/mL (≈ 42.7 µM)
- MIC (A. baumannii IMP-4; Acinetobacter baumannii, IMP4, read-out: MIC): > 32 µg/mL
- MIC (A. baumannii IMP-4; Gram-negative): > 32 µg/mL
- MIC (K. pneumoniae ATCC 10031; K. pneumoniae ATCC 10031, Gram-negative): 4 µg/mL (≈ 5.34 µM)
- MIC (K. pneumoniae ATCC 10031; [34]): 4 µg/mL (≈ 5.34 µM)
- MIC (K. pneumoniae KPC-2; Gram-negative): > 32 µg/mL
- MIC (K. pneumoniae KPC-2; Klebsiella pneumoniae, KPC2, read-out: MIC): > 32 µg/mL
- MIC (K. pneumoniae SHV-12; Gram-negative): 16 µg/mL (≈ 21.4 µM)
- MIC (K. pneumoniae SHV-12; Klebsiella pneumoniae, SHV12, read-out: MIC): 16 µg/mL (≈ 21.4 µM)
- MIC (P. aeruginosa ATCC 27853; P. aeruginosa ATCC 27853, Gram-negative): > 32 µg/mL
- MIC (P. aeruginosa ATCC 27853; [35]): > 32 µg/mL
- MIC ([9]; Gram-negative): > 32 µg/mL
- MIC ([9]; Pseudomonas aeruginosa, HPA1011477, read-out: MIC): > 32 µg/mL

Structure (SMILES): CC[C@H]1OC(=O)[C@H](C)C(=O)[C@H](C)[C@@H](O[C@@H]2OC(C)CC(N(C)C)C2O)[C@](C)(OC)C[C@@H](C)C(=O)[C@H](C)[C@H]2N(CC#CCn3cc(-c4cccc(N)n4)nn3)C(=O)O[C@]12C (stereo partly drawn) [FSM-100551]
- MIC (E. coli ATCC 25922; [19]): 8 µg/mL (≈ 9.71 µM)
- MIC [10]: > 64 µg/mL
- MIC (E. coli MP-541 clinical): 16 µg/mL (≈ 19.4 µM)
- MIC [11]: 2 µg/mL (≈ 2.43 µM)
- MIC [12]: > 64 µg/mL
- MIC (S. aureus ATCC 29213; [20]): 0.06 µg/mL (≈ 0.0728 µM)
- MIC [13]: 0.06 µg/mL (≈ 0.0728 µM)
- MIC (S. aureus MRSA: USA100; [21]): > 64 µg/mL
- MIC (S. aureus MRSA: USA300; [22]): 0.125 µg/mL (≈ 0.152 µM)
- MIC (S. aureus USA600, GISA; [23]): 64 µg/mL (≈ 77.7 µM)
- MIC (S. aureus erm A genotype; [24]): > 64 µg/mL
- MIC (S. pneumoniae ATCC 49619; [25]): < 0.03 µg/mL
- MIC [3, 26]: < 0.03 µg/mL
- MIC [4, 27]: < 0.03 µg/mL
- MIC (S. pyogenes ATCC 19615; [28]): < 0.03 µg/mL
- MIC [5, 29]: 0.06 µg/mL (≈ 0.0728 µM)
- MIC (E. faecalis ATCC 29212; [30]): < 0.03 µg/mL
- MIC [6, 31]: 4 µg/mL (≈ 4.85 µM)
- MIC (A. baumannii ATCC 19606; [32]): 4 µg/mL (≈ 4.85 µM)
- MIC (K. pneumoniae ATCC 10031; [34]): 8 µg/mL (≈ 9.71 µM)
- MIC (P. aeruginosa ATCC 27853; [35]): 16 µg/mL (≈ 19.4 µM)
- MIC (P. aeruginosa MP-7 PAO1): 32 µg/mL (≈ 38.8 µM)
- MIC [14]: 4 µg/mL (≈ 4.85 µM)
- MIC [15]: 32 µg/mL (≈ 38.8 µM)
- MIC [16]: > 64 µg/mL
- MIC [17]: 16 µg/mL (≈ 19.4 µM)
- MIC [18]: > 64 µg/mL
